The source of these data is PMC4824452, “Substrate complexes of human dipeptidyl peptidase III reveal the mechanism of enzyme inhibition” (Scientific Reports, 2016).

Assay [1] concerns hDPP III. On the set-up: method as in 2 sources, ref 22 = [22]; PMID 10822105; doi:10.1016/s0196-9781(00)00174-1; Yamamoto Y. , Hashimoto J. , Shimamura M. , Yamaguchi T. & Hazato T. Characterization of tynorphin, a potent endogenous inhibitor of dipeptidyl peptidaseIII . Peptides 21 , 503 – 508 ( 2000 ). 1082210 ||| ref 1 = [1]; PMID 21794094; doi:10.1111/j.1742-4658.2011.08275.x; Prajapati S. C. & Chauhan S. S. Dipeptidyl peptidase III: a multifaceted oligopeptide N-end cutter . FEBS J. 278 , 3256 – 3276 ( 2011 ). 21794094 10.1111/j.1742-4658.2011.08275.x. Particulars: cited from earlier work.

Assay [2] addresses T1, hDPP III, wild-type enzyme (Homo sapiens, UniProt Q9NY33).
T1 sequence (Q9NY33 1-737): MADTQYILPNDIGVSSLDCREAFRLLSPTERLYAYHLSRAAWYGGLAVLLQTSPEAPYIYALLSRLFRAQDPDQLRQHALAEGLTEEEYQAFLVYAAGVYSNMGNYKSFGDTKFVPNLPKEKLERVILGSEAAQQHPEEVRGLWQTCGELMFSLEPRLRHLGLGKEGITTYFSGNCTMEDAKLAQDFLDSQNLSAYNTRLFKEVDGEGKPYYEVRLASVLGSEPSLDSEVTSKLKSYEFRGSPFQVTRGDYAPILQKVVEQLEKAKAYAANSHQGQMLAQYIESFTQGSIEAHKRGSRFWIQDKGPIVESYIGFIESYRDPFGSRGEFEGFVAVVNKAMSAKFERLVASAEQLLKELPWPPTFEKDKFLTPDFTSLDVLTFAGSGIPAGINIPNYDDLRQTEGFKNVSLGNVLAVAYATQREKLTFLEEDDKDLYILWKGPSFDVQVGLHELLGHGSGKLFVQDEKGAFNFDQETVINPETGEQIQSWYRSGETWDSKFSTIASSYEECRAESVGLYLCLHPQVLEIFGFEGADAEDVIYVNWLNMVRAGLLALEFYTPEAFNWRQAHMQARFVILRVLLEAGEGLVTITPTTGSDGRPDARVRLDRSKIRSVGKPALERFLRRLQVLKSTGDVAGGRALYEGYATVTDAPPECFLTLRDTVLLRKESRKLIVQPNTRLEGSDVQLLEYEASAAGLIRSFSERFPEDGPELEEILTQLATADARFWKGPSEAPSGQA
As to the kind of experiment: Fluorometric activity assay, release of β-naphthylamine, wild-type enzyme. Type of assay: biochemical. The following applies: wild-type enzyme 20 pM; substrate 1 μM to 200 μM; 37 °C, 50 mM Tris-HCl pH 8.0, 100 mM NaCl; fluorescence ex 320 nm, em 420 nm. How it is done:
(§1) The enzymatic activities of the wild-type enzyme and the active smFRET construct (still containing residue Glu-451) were determined using a fluorometric assay, which measures the release of β-naphthylamine upon cleavage of the synthetic substrate Arg-Arg-β-naphthylamide (excitation at 320 nm and emission at 420 nm)[41]. Kinetic parameters were determined at 37 °C in 50mM Tris-HCl buffer pH 8.0, containing 100 mM NaCl. The protein concentrations were 20 pM (wild-type enzyme) and 50 pM (smFRET construct). The substrate concentration was varied from 1 μM to 200 μM. The initial rate of fluorescence increase was monitored continuously for 5 min and was converted into the velocity of the reaction using a calibration curve for β-naphthylamine. Non-linear regression using the program GraphPad Prism (www.graphpad.com) yielded the values for vmax and KM.

Assay [3] concerns the target T2, active smFRET construct of hDPP III (still containing residue Glu-451) (Homo sapiens, UniProt Q9NY33, C19S/C519S/C654S/E207C/S491C).
T2 construct: His6-tag with TEV protease cleavage site (N, cleaved yes); made in house; host or cells: E. coli BL21-CodonPlus (DE3) RIL
T2 sequence (Q9NY33 1-726 C19S/E207C/S491C/C519S/C654S limits assumed): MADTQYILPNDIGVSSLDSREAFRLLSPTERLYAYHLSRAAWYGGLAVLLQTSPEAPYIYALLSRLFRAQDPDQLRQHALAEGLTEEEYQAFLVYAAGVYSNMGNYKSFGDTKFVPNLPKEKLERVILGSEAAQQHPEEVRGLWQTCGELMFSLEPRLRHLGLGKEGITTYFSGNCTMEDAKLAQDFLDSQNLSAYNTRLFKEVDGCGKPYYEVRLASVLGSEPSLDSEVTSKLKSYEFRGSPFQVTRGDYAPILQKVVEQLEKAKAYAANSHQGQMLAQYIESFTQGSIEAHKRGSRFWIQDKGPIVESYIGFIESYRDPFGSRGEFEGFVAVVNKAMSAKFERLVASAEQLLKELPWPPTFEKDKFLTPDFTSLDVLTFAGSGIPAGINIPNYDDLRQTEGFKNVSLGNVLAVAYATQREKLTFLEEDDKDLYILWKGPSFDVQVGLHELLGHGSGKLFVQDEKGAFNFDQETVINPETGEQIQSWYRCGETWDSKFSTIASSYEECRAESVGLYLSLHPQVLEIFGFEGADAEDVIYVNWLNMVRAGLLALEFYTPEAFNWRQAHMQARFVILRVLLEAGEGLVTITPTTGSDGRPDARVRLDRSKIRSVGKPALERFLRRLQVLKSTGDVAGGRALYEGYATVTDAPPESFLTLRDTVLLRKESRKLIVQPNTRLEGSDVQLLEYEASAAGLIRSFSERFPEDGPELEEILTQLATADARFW
As to the kind of experiment: Fluorometric activity assay, release of β-naphthylamine, active smFRET construct. Particulars: active smFRET construct 50 pM; substrate 1 μM to 200 μM; 37 °C, 50 mM Tris-HCl pH 8.0, 100 mM NaCl; fluorescence ex 320 nm, em 420 nm. Type of assay: biochemical. How it is done: as §1

Another assay concerns human DPP III. The following applies: cited from earlier work.
For a further assay, the system named is rat DPP III. The arrangement: method as in PMID 12895665. Particulars: cited from earlier work.
The test system of assay [4] is partially purified DPP III from monkey brain. The arrangement: method as in PMID 10822105. The following applies: cited from earlier work.
In assay [5] the test system is hDPP III. The following applies: cited from earlier work. The text has this:
The octapeptide angiotensin-II (DRVYIHPF) is a potent vasoconstrictor and is involved in regulating mammalian blood pressure.

For assay [6], the target named is hDPP3(1-726) E451A, inactive hDPP III variant used for ITC (human) (UniProt Q9NY33). Kind of assay: ITC; 800 μM angiotensin II in the syringe into 40 μM enzyme in the cell; 25 °C; 50 mM Tris-HCl pH 8.0, 100 mM NaCl; one-binding-site model. (In general: Isothermal titration calorimetry measures the heat released or taken up as one component is titrated into another.)

A further assay has as its target inactive hDPP3 variant. On the set-up: method as in PMID 22493238. Particulars: cited from earlier work.
Assay [7] concerns the target T3, human dipeptidyl peptidase III (1-726), inactive E451A variant, smFRET construct (C19S, C519S, C654S, E207C, … (human, UniProt Q9NY33 1-726, E451A | C19 exchanged to serine | C519 exchanged to serine | C654 exchanged to …)).
T3 construct: human dipeptidyl peptidase III, residues 1-726 (lacks 11 C-terminal residues), with E451A and five surface exchanges made for smFRET; Vector pET28-MHL; His6-tag removed with TEV protease, so residues of the cleavage site may remain at the N-terminus; also called hDPP III; hDPP3; source: E. coli BL21-CodonPlus (DE3) RIL, purified (Ni-NTA, ResourceQ anion exchange, TEV cleavage, Superdex 200); not …
T3 sequence (looked up): T2 sequence (Q9NY33 1-726 C19S/E207C/S491C/C519S/C654S limits assumed) with E451A
Kind of assay: crystal structure; co-crystallisation; protein 8 mg mL^-1, protein:ligand about 1:30, sitting drop vapour diffusion at 20 °C, microseeding with crystals of the angiotensin II complex. Particulars: both partners purified.

Substitutions are numbered along the chain they refer to.

With “YPFF-NH2 [endomorphin-2, opioid peptide with amidated C-terminus]”, in the assay on hDPP III [1], the “in vitro substrate of hDPP III (in words)” value (“in vitro substrate” below) is “known in vitro substrates of hDPP III”.
As for “YGGFM [Met-enkephalin, endogenous opioid neurotransmitter (YGGFM)]”, in the assay with hDPP III [1], the “cleavage by hDPP III (in words)” value is on record as “shown to be cleaved by hDPP III” and the “in vitro substrate” value is “known in vitro substrates of hDPP III”.
The term Km denotes the concentration of substrate that gives half-maximal velocity. The term kcat denotes the maximal rate divided by the concentration of active sites. Take “Arg-Arg-β-naphthylamide [synthetic substrate releasing β-naphthylamine upon cleavage]”: in assay [2], the Km was found to be 24 µM and the kcat was found to be 24 s⁻¹. In [3], the Km is 30 µM and the catalytic constant (kcat) is 28 s⁻¹.
IVYPW: in the assay on human DPP III, the “inhibition of the enzyme (in words)” value is “described as an inhibitor of the enzyme”. Moreover, the “relative inhibitory strength (in words)” value with rat DPP III (compared with tynorphin, presumably ref 23) is reported as “a stronger inhibitor than tynorphin”. The “inhibition (in words)” value in the assay with rat DPP III (rat DPP III) is “nanomolar affinity”.
In the case of “VVYPW [tynorphin, synthetic opioid peptide, a derivative of spinorphin]”, the “period over which the peptide appears to be hydrolysed” value with hDPP III [1] is “about 24 hours”. In addition, the “inhibition of human DPP III (in words)” value in the assay with human DPP III is “described as an inhibitor of human DPP III”. Further, the “inhibition (in words)” value in assay [4] is on record as “shown to inhibit partially purified DPP III from monkey brain”. The “character of binding (thermodynamic, in words)” value in the assay with hDPP III [5] is “endothermic process driven by entropic changes”.
Usually Kd stands for the equilibrium constant for the complex coming apart. In assay [6], angiotensin-II (peptide) registered a Kd of 1640 nM and a dH of 3.64 kcal/mol.
On to “YGGFL [Leu-enkephalin, endogenous opioid neurotransmitter (YGGFL)]”, for which, in the assay on hDPP III [1], the “cleavage by hDPP III (in words)” value is “shown to be cleaved by hDPP III” and the “in vitro substrate” value was “known in vitro substrates of hDPP III”. Further, the equilibrium dissociation constant (Kd) at inactive hDPP3 variant is 3600 nM.

B1: Met-enkephalin (peptide)
peptide: YGGFM
notes: Met-enkephalin, endogenous opioid pentapeptide cut from proenkephalin-A; also called YGGFM
As to B1, in assay [7], the binding result is given as “binds”.

B2: Leu-enkephalin (peptide)
peptide: YGGFL
notes: Leu-enkephalin, endogenous opioid pentapeptide cut from proenkephalin-A (also held in prodynorphin); also called YGGFL
As to B2, the binding result in assay [7] is recorded as “binds”.

B3: synthetic opioid peptide IVYPW (peptide)
peptide: IVYPW
notes: synthetic opioid peptide, similar to tynorphin (VVYPW), a derivative of spinorphin
For B3, in assay [7], the binding result is recorded as “binds”.
